Here are results for eleven compounds from patent publication US20090137572A1, “2-substituted-4-heteroaryl-pyrimidines useful for the treatment of proliferative disorders” (priority 2004, published 2009).

Common to all, as to type: biochemical
In one assay the target is CDK2-cyclin A (Homo sapiens, UniProt P24941). The experiment in a line: Kinase assay (radioactive phosphate incorporation), CDK2-cyclin A. The note with it: read-out: Kinase Inhibition pIC50 CDK2-cyclin A (converted). The procedure, abridged: (§1)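 Inhibition was measured as transfer of radiolabelled phosphate from [γ-32P]-ATP (100 μM ATP, 15 mM MgCl2) onto polypeptide substrates by recombinant kinases or kinase complexes. Reactions ran at 30° C in MOPS/β-glycerophosphate buffer, pH 7.4, were stopped on ice and filtered before scintillation counting.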

The next assay has as its target CDK2-cycline E (Homo sapiens, UniProt P24941). The experiment in a line: Kinase assay (radioactive phosphate incorporation), CDK2-cyclin E. The note with it: read-out: Kinase Inhibition pIC50 CDK2-cycline E (converted). In outline: as §1
The target in the next assay is CDK7/cyclin H (Homo sapiens, UniProt P50613). The experiment in a line: CDK 7 assay (CTD peptide substrate). The note with it: read-out: Kinase Inhibition pIC50 CDK7-cyclin H (converted). The procedure, abridged: (§2)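 Radiometric filter-binding read-out: 32P transferred from 100 μM [γ-32P]ATP to biotinyl-(YSPTSPS)4 CTD peptide. Enzyme 0.5-2 μg recombinant human complex; 20 mM MOPS pH 7.2, 15 mM MgCl2, vanadate, DTT; 45 min, 30° C; avidin bound, P81 plate washed, counted.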
Sequence of CDK7/cyclin H (P50613 whole entry): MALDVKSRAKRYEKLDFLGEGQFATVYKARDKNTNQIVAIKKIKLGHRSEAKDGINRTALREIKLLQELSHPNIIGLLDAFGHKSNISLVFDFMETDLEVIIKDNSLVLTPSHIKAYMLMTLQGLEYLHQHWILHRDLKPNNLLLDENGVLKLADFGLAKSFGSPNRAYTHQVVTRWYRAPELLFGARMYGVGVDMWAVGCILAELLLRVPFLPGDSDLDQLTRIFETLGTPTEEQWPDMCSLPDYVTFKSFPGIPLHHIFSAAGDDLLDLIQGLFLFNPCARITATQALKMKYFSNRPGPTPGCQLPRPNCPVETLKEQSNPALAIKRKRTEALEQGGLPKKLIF
Sequence of CDK7/cyclin H (P51946 whole entry partner): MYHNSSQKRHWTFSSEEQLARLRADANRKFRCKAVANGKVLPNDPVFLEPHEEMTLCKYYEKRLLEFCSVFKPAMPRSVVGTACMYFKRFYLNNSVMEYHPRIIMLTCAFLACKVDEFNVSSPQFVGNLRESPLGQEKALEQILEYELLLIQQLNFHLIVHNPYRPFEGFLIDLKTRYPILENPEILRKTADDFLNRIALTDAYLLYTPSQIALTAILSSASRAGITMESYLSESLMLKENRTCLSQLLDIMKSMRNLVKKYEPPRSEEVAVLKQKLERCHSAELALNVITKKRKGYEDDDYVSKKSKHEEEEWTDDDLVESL

A further assay addresses T1, Aurora A kinase (Homo sapiens, UniProt O14965).
T1 construct: purchased
T1 sequence (O14965 1-403): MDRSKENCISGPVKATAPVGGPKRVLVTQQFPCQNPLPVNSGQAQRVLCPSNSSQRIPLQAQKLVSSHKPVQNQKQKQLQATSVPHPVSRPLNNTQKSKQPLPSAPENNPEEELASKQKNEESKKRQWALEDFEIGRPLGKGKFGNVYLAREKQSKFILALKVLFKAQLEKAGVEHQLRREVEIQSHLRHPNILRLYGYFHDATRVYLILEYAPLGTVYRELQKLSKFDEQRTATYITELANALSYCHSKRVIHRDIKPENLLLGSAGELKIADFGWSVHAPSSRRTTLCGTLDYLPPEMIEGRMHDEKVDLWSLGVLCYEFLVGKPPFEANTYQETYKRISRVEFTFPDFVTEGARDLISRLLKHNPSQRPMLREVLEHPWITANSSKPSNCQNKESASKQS
Briefly: Aurora-A (human) kinase assay (Kemptide substrate). As to conditions: pIC50 is -log(IC50, M); 15 μM ATP; read-out: Kinase Inhibition pIC50 Aurora A kinase (converted). The procedure, abridged:
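Kemptide (LRRASLG, 200 μM) phosphorylation by 5-10 ng commercial aurora-A measured as [γ-33P] incorporation at 15 μM ATP with 10 mM Mg acetate, pH 7.0 MOPS buffer. Reaction ran 40 min at room temperature; acid-stopped, captured on P81 filters, scintillation read.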

Assay [1] has as its target T2, Flt3 (FMS-like tyrosine kinase-3) (Homo sapiens, UniProt P36888).
T2 sequence (P36888 27-993): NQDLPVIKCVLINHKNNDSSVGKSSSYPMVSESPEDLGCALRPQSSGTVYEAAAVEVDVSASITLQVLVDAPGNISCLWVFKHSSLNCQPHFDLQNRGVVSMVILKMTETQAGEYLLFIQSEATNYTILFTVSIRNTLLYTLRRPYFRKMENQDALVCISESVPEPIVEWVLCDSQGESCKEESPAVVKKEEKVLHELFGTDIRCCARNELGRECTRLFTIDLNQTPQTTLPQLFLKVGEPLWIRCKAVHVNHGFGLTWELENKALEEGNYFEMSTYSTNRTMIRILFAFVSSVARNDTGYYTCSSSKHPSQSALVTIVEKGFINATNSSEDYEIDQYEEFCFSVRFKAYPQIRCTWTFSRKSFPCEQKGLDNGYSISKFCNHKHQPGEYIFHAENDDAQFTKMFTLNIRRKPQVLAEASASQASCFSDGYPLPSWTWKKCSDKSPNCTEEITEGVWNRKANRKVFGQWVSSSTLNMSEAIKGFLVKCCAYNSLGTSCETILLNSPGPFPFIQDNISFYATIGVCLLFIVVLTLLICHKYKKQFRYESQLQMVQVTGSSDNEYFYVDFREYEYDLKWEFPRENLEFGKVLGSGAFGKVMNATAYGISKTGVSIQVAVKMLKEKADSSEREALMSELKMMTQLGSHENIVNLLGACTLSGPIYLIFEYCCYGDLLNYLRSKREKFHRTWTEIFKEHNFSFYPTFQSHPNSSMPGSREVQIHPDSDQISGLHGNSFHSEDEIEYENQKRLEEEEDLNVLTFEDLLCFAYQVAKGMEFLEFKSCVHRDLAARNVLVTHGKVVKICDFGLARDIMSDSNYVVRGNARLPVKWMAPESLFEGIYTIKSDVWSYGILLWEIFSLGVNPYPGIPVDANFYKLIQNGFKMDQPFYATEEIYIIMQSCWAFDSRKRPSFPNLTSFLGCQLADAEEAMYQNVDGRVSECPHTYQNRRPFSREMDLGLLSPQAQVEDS
Briefly: Kinase assay (radioactive phosphate incorporation), Flt3. The note with it: pIC50 is -log(IC50, M), read-out: Kinase Inhibition pIC50 Flt3 (converted). In outline: as §1

For another assay, the target named is CDK1-cyclin B (Homo sapiens, UniProt P06493). Briefly: Kinase assay (radioactive phosphate incorporation), CDK1-cyclin B. As to conditions: read-out: Kinase Inhibition pIC50 CDK1-cyclin B (converted). The procedure, abridged:
as §1

The target of a further assay is CDK4-cyclin D1 (Homo sapiens, UniProt P11802). Briefly: Kinase assay (radioactive phosphate incorporation), CDK4-cyclin D1. As to conditions: read-out: Kinase Inhibition pIC50 CDK4-cyclin D1 (converted). In outline: as §1
Sequence of CDK4-cyclin D1 (P11802 whole entry): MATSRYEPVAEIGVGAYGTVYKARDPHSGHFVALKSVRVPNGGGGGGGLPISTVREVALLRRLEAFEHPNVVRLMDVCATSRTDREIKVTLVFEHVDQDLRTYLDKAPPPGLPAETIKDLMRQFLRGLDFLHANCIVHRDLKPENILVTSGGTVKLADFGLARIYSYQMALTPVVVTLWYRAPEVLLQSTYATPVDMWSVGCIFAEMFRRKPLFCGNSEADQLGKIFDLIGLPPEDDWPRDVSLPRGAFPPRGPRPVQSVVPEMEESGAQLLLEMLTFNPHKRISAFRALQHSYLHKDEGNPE
Sequence of CDK4-cyclin D1 (P24385 whole entry partner): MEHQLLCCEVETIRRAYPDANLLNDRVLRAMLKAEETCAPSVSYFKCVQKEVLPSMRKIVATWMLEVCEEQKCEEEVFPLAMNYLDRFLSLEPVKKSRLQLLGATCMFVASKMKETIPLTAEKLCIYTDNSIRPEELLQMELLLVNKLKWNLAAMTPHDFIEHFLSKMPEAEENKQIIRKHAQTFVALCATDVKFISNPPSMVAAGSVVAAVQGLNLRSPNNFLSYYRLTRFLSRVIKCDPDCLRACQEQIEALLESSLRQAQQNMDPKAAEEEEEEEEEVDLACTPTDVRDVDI
The target in a further assay is CDK9/cyclin T1 (Homo sapiens, UniProt P50750). The experiment in a line: CDK 9 assay (CTD peptide substrate). As to conditions: read-out: Kinase Inhibition pIC50 CDK9-cyclin T1 (converted). In outline: as §2
Sequence of CDK9/cyclin T1 (P50750 whole entry): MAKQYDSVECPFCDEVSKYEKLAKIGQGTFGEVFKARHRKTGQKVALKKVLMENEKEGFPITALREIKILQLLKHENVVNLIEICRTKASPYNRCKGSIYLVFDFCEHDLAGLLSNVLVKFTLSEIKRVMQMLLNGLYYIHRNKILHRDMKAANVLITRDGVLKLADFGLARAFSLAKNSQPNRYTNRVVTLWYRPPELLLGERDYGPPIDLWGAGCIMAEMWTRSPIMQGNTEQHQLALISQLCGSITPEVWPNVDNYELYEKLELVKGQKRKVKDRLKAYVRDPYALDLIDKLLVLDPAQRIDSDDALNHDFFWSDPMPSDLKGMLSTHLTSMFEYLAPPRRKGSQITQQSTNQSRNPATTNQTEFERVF
Sequence of CDK9/cyclin T1 (O60563 whole entry partner): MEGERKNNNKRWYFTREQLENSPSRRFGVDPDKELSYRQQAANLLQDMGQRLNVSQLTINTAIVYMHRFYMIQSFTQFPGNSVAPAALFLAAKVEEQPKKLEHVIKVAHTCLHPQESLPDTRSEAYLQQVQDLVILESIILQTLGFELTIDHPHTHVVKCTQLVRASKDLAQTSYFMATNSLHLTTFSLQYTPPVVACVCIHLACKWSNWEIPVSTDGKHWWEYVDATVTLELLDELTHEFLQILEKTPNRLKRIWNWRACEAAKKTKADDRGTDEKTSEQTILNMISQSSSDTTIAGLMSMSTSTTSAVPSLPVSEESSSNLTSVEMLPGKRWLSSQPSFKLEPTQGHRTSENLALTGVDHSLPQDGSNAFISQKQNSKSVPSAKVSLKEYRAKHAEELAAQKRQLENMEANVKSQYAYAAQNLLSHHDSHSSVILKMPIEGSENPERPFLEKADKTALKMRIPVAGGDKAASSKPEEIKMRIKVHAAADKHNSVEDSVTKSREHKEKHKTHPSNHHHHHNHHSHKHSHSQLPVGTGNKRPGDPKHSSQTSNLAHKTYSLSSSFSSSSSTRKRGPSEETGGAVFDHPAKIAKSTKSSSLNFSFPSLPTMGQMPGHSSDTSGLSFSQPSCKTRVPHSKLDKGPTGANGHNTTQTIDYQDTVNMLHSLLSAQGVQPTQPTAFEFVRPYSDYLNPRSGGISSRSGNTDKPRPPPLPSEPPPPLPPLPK
For another assay, the target named is GSK3b (Homo sapiens, UniProt P49841). The experiment in a line: Kinase assay (radioactive phosphate incorporation), GSK-3b. As to conditions: read-out: Kinase Inhibition pIC50 GSK-3b (converted). The procedure, abridged:
as §1

Sequence of CDK1-cyclin B (P06493 whole entry): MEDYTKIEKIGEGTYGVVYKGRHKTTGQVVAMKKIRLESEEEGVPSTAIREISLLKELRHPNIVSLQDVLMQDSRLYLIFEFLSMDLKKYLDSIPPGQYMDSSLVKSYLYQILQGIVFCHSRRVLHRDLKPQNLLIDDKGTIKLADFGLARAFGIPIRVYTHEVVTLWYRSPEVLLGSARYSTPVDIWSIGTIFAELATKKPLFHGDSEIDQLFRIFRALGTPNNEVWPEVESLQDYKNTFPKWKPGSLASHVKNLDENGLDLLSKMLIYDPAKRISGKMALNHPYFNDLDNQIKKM
Sequence of CDK1-cyclin B (P14635 whole entry partner): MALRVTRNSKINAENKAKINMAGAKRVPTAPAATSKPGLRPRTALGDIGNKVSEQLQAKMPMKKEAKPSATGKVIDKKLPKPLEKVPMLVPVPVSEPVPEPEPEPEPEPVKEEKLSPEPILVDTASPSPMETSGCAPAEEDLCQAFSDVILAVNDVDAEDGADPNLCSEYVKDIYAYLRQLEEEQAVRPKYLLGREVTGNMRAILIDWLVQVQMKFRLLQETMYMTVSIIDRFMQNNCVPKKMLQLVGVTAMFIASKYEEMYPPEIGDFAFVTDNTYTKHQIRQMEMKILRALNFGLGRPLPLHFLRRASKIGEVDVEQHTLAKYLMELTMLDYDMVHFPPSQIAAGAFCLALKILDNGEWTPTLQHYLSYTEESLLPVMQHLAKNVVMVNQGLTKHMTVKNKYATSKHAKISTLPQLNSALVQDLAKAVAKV
Sequence of GSK3b (P49841 whole entry, species assumed): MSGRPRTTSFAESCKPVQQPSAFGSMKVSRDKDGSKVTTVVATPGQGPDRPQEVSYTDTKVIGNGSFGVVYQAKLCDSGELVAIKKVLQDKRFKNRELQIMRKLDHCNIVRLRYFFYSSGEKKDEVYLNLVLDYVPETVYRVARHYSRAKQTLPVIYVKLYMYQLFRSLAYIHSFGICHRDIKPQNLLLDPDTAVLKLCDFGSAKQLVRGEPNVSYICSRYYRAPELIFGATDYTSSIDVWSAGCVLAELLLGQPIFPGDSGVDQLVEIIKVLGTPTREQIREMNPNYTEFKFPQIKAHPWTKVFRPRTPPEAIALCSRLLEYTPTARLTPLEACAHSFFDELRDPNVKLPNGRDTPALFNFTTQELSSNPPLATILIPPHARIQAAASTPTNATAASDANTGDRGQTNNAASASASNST

With `CCNS(=O)(=O)c1cccc(Nc2nccc(-c3sc(N)nc3C)n2)c1` [Compound 30, 3-[4-(2-Amino-4-methyl-thiazol-5-yl)-pyrimidin-2-ylamino]-N-ethyl-benzenesulfonamide], the IC50 on CDK2-cyclin A is 1000 nM; at CDK2-cycline E, 100 nM; at CDK7/cyclin H, 398 nM; at Aurora A kinase, 15.8 nM; in assay [1], 200 nM; on CDK1-cyclin B, 2000 nM. Further, the values for the IC50 at CDK4-cyclin D1, on CDK9/cyclin T1 and on GSK3b were 794 nM, 20 nM and 316 nM, respectively.

As to `Cc1nc(N)sc1-c1ccnc(Nc2cccc(S(=O)(=O)NCCO)c2)n1` [Compound 77, 3-[4-(2-Amino-4-methyl-thiazol-5-yl)-pyrimidin-2-ylamino]-N-(2-hydroxy-ethyl)-benzenesulfonamide], the IC50 on CDK2-cyclin A was 1000 nM; at CDK2-cycline E, 126 nM; on CDK7/cyclin H it was 398 nM; at Aurora A kinase it was 100 nM; in assay [1], 158 nM; at CDK1-cyclin B it was 1000 nM. Moreover, the IC50 was 126 nM on CDK4-cyclin D1, 25.1 nM on CDK9/cyclin T1 and 316 nM on GSK3b.

With `CC(=O)NCc1ccc(Nc2nccc(-c3sc(C)nc3C)n2)cc1` [Compound 15, N-{4-[4-(2,4-Dimethyl-thiazol-5-yl)-pyrimidin-2-ylamino]-benzyl}-acetamide], the IC50 at CDK2-cyclin A is 1000 nM; at CDK2-cycline E, 200 nM; at CDK7/cyclin H it was 1580 nM; on Aurora A kinase it was 39.8 nM; in [1], 501 nM; on CDK1-cyclin B, 501 nM. Further, the IC50 is 631 nM at CDK4-cyclin D1, 794 nM on CDK9/cyclin T1 and 1000 nM on GSK3b.

Regarding `Cc1nc(C)c(-c2ccnc(Nc3cccc(N4CCNCC4)c3)n2)s1` [Compound 8, [4-(2,4-Dimethyl-thiazol-5-yl)-pyrimidin-2-yl]-(3-piperazin-1-yl-phenyl)-amine], the IC50 on CDK2-cyclin A is 5010 nM; at CDK2-cycline E, 2000 nM; at CDK7/cyclin H, 2000 nM; on Aurora A kinase, 39800 nM; in [1], 50.1 nM; on CDK1-cyclin B, 5010 nM. In addition, the IC50 on CDK4-cyclin D1 is 2510 nM; on CDK9/cyclin T1 it was 501 nM; at GSK3b, 12600 nM.

In the case of `CNc1nc(C)c(-c2ccnc(Nc3cccc(S(=O)(=O)NC)c3)n2)s1` [Compound 21, N-Methyl-3-[4-(4-methyl-2-methylamino-thiazol-5-yl)-pyrimidin-2-ylamino]-benzenesulfonamide], the IC50 is 794 nM at CDK2-cyclin A; 63.1 nM at CDK2-cycline E; 251 nM on CDK7/cyclin H; 79.4 nM on Aurora A kinase; 158 nM in [1]; 1000 nM at CDK1-cyclin B. Also, the IC50 at CDK4-cyclin D1 was 39.8 nM; at CDK9/cyclin T1, 12.6 nM; on GSK3b it was 251 nM.

On to `CNS(=O)(=O)c1cccc(Nc2nccc(-c3sc(N)nc3C)n2)c1` [Compound 26, 3-[4-(2-Amino-4-methyl-thiazol-5-yl)-pyrimidin-2-ylamino]-N-methyl-benzenesulfonamide], for which the IC50 at CDK2-cyclin A is 1000 nM; at CDK2-cycline E, 251 nM; at CDK7/cyclin H, 794 nM; at Aurora A kinase, 79.4 nM; in [1], 1000 nM; at CDK1-cyclin B, 1260 nM. The IC50 is 2510 nM on CDK4-cyclin D1, 126 nM at CDK9/cyclin T1 and 316 nM on GSK3b.

For the compound `CCNc1nc(C)c(-c2ccnc(Nc3ccc(S(N)(=O)=O)cc3)n2)s1` [Compound 35, 4-[4-(2-Ethylamino-4-methyl-thiazol-5-yl)-pyrimidin-2-ylamino]-benzenesulfonamide], the IC50 at CDK2-cyclin A was 6.31 nM; at CDK2-cycline E, 3.98 nM; on CDK7/cyclin H it was 79.4 nM; at Aurora A kinase it was 63.1 nM; in [1], 63.1 nM; on CDK1-cyclin B, 31.6 nM. Besides, the IC50 is 20 nM at CDK4-cyclin D1, 10 nM at CDK9/cyclin T1 and 631 nM on GSK3b.

On to `Cc1nc(N)sc1-c1ccnc(Nc2cccc(CNS(=O)(=O)C(F)(F)F)c2)n1` [Compound 12, N-{3-[4-(2-Amino-4-methyl-thiazol-5-yl)-pyrimidin-2-ylamino]-benzyl}-C,C,C-trifluoro-methanesulfonamide], for which the IC50 on CDK2-cyclin A was 501 nM; at CDK2-cycline E, 63.1 nM; on CDK7/cyclin H, 200 nM; on Aurora A kinase it was 251 nM; in [1], 794 nM; at CDK1-cyclin B it was 631 nM. For the same compound, the results for the IC50 on CDK4-cyclin D1, on CDK9/cyclin T1 and at GSK3b were 631 nM, 100 nM and 2000 nM, respectively.

As to `CCNc1nc(C)c(-c2ccnc(Nc3cccc(CNS(C)(=O)=O)c3)n2)s1` [Compound 5, N-{3-[4-(2-Ethylamino-4-methyl-thiazol-5-yl)-pyrimidin-2-ylamino]-benzyl}-methanesulfonamide], the IC50 at CDK2-cyclin A is 200 nM; on CDK2-cycline E, 158 nM; at CDK7/cyclin H it was 251 nM; at Aurora A kinase it was 31.6 nM; in [1], 50.1 nM; on CDK1-cyclin B, 1260 nM. For the same compound, the IC50 on CDK4-cyclin D1 is 158 nM; at CDK9/cyclin T1 it was 12.6 nM; at GSK3b, 200 nM.

As to `CC(=O)NCc1ccc(Nc2nccc(-c3sc(N)nc3C)n2)cc1` [Compound 16, N-{4-[4-(2-Amino-4-methyl-thiazol-5-yl)-pyrimidin-2-ylamino]-benzyl}-acetamide], the IC50 at CDK2-cyclin A was 1260 nM; on CDK2-cycline E, 158 nM; on CDK7/cyclin H it was 2000 nM; on Aurora A kinase it was 79.4 nM; in assay [1], 158 nM; at CDK1-cyclin B, 1000 nM. Besides, the IC50 on CDK4-cyclin D1 was 501 nM; at CDK9/cyclin T1 it was 251 nM; on GSK3b, 1000 nM.

With `CCNc1nc(C)c(-c2ccnc(Nc3ccc(S(C)(=O)=O)cc3)n2)s1` [Compound 17, [4-(2-Ethylamino-4-methyl-thiazol-5-yl)-pyrimidin-2-yl]-(4-methanesulfonyl-phenyl)-amine], the IC50 at CDK2-cyclin A was 39.8 nM; on CDK2-cycline E it was 50.1 nM; on CDK7/cyclin H it was 2510 nM; at Aurora A kinase, 39.8 nM; in assay [1], 251 nM; at CDK1-cyclin B, 1000 nM. In addition, the IC50 at CDK4-cyclin D1 was 1580 nM; on CDK9/cyclin T1, 200 nM; at GSK3b, 2000 nM.
